Experimental data taken from patent publication US4115541A (priority 1975, dated 1978).
Where two headings read alike, the source gives them in different places.

What was measured:
[1] = Distribution of 99mTc-Sn-AEDP and 85Sr in rabbits, carrier effect of AEDP (Example 4); type: in vivo, rabbit; conditions: 2 Hrs.
Procedure: Adult New Zealand albino rabbits having an average weight of 3.8 kg were utilized. Strontium-85 was employed as a standard for comparison. […] Each dosage is contained in a volume of 1 ml.
The animals were sacrificed serially from 1 to 24 hours after injection and the activities in major organs were determined by counting multiple samples from each organ in a scintillation well counter (the technetium-99m counts were corrected for the Compton contributions from the strontium-85 activity in the technetium-99m energy window). Multiple samples were counted from the tibia, femur, spine and pelvic bones; the total activity in the skeleton was estimated by assuming the whole skeleton consisted of equal proportions by weight of tibia, spine, femur and pelvis and that the skeletal mass was 10% of the body weight. The red marrow was sampled from the femur and the total marrow was assumed to be 2.2% of the total body weight. Similarly, blood volume was assumed to be 7% and the skeletal muscle 43% of the body weight. The whole liver and both kidneys were weighed and multiple samples from each were counted to measure the total activity in each organ.
In another series of experiments carried out as described in Example 2, the distribution of technetium 99m from its 99m-technetium-tin-methylene diphosphonate complex was determined in albino rabbits, again in comparison with strontium-85.
The distribution of technetium 99m from its 99m technetium-tin-1-amino-ethane-1,1-diphosphonate complex was determined as in Example 3 and compared with the distribution of strontium-85.

[2] = physical; cited from earlier work
[3] = rabbits i.v., ~1 mg/kg EHDP
[4] = rabbits, 2 Hrs.
[5] = rabbits, 2 Hrs.; remark: listed apart in the source

[85Sr+2].[Cl-].[Cl-] [^85 Sr, 85Sr chloride, reference compound]
Blood, % Dose in Whole Organ ([1]; AEDP 0.05 mg/kg): 2.50 % Dose | Liver, % Dose in Whole Organ ([1]; AEDP 0.5 mg/kg): 0.720 % Dose | half-life (radionuclide) [2]: 65 days | Blood, % dose/1% body weight ([3]; 1 Hr.): 1.70 % dose/1% body weight | Bone(Avg), % dose in whole organ ([3]; 1 Hr.): 56.0 % dose | Bone(Avg), % dose/1% body weight ([3]; 1 Hr.): 5.60 % dose/1% body weight | Femur, % dose/1% body weight ([3]; 1 Hr.): 4.90 % dose/1% body weight | Kidneys, % Dose in Whole Organ ([3]; 1 Hr.): 0.80 % dose | Kidneys, % dose/1% body weight ([3]; 1 Hr.): 1.75 % dose/1% body weight | Liver, % dose/1% body weight ([3]; 1 Hr.): 0.59 % dose/1% body weight | Marrow, % Dose in Whole Organ ([3]; 1 Hr.): 0.91 % dose | Marrow, % dose/1% body weight ([3]; 1 Hr.): 0.41 % dose/1% body weight | Muscle, % dose/1% body weight ([3]; 1 Hr.): 0.31 % dose/1% body weight | Pelvis, % dose/1% body weight ([3]; 1 Hr.): 7.07 % dose/1% body weight | Spine, % dose/1% body weight ([3]; 1 Hr.): 7.03 % dose/1% body weight | Tibia, % dose/1% body weight ([3]; 1 Hr.): 3.62 % dose/1% body weight | Blood, % dose/1% body weight ([3]; 2 Hrs): 1.01 % dose/1% body weight | Bone(Avg), % dose/1% body weight ([3]; 2 Hrs): 6.44 % dose/1% body weight | Femur, % dose/1% body weight ([3]; 2 Hrs): 5.74 % dose/1% body weight | Kidneys, % Dose in Whole Organ ([3]; 2 Hrs): 0.64 % dose | Kidneys, % dose/1% body weight ([3]; 2 Hrs): 1.40 % dose/1% body weight | Liver, % dose/1% body weight ([3]; 2 Hrs): 0.43 % dose/1% body weight | Marrow, % Dose in Whole Organ ([3]; 2 Hrs): 0.76 % dose | Marrow, % dose/1% body weight ([3]; 2 Hrs): 0.34 % dose/1% body weight | Muscle, % Dose in Whole Organ ([3]; 2 Hrs): 8.8 % dose | Muscle, % dose/1% body weight ([3]; 2 Hrs): 0.21 % dose/1% body weight | Pelvis, % dose/1% body weight ([3]; 2 Hrs): 7.70 % dose/1% body weight | Spine, % dose/1% body weight ([3]; 2 Hrs): 7.59 % dose/1% body weight | Tibia, % dose/1% body weight ([3]; 2 Hrs): 4.73 % dose/1% body weight | Urine, % Dose ([3]; 2 Hrs): 18.0 % dose | Blood, % dose/1% body weight ([3]; 4 Hrs): 0.55 % dose/1% body weight | Bone(Avg), % dose/1% body weight ([3]; 4 Hrs): 6.81 % dose/1% body weight | Femur, % dose/1% body weight ([3]; 4 Hrs): 6.17 % dose/1% body weight | Kidneys, % Dose in Whole Organ ([3]; 4 Hrs): 0.34 % dose | Kidneys, % dose/1% body weight ([3]; 4 Hrs): 0.71 % dose/1% body weight | Liver, % dose/1% body weight ([3]; 4 Hrs): 0.26 % dose/1% body weight | Marrow, % Dose in Whole Organ ([3]; 4 Hrs): 0.50 % dose | Marrow, % dose/1% body weight ([3]; 4 Hrs): 0.23 % dose/1% body weight | Muscle, % dose/1% body weight ([3]; 4 Hrs): 0.15 % dose/1% body weight | Pelvis, % dose/1% body weight ([3]; 4 Hrs): 8.02 % dose/1% body weight | Spine, % dose/1% body weight ([3]; 4 Hrs): 7.82 % dose/1% body weight | Tibia, % dose/1% body weight ([3]; 4 Hrs): 5.13 % dose/1% body weight | Blood, % Dose in Whole Organ ([3]; 24 Hrs): 0.29 % dose | Blood, % dose/1% body weight ([3]; 24 Hrs): 0.04 % dose/1% body weight | Bone(Avg), % dose/1% body weight ([3]; 24 Hrs): 5.21 % dose/1% body weight | Femur, % dose/1% body weight ([3]; 24 Hrs): 4.83 % dose/1% body weight | Kidneys, % Dose in Whole Organ ([3]; 24 Hrs): 0.03 % dose | Kidneys, % dose/1% body weight ([3]; 24 Hrs): 0.06 % dose/1% body weight | Liver, % dose/1% body weight ([3]; 24 Hrs): 0.02 % dose/1% body weight | Marrow, % Dose in Whole Organ ([3]; 24 Hrs): 0.10 % dose | Marrow, % dose/1% body weight ([3]; 24 Hrs): 0.05 % dose/1% body weight | Muscle, % Dose in Whole Organ ([3]; 24 Hrs): 1.00 % dose | Pelvis, % dose/1% body weight ([3]; 24 Hrs): 5.26 % dose/1% body weight | Spine, % dose/1% body weight ([3]; 24 Hrs): 6.47 % dose/1% body weight | Tibia, % dose/1% body weight ([3]; 24 Hrs): 4.27 % dose/1% body weight | Kidneys, % Dose in Whole Organ ([4]; EHDP 0.01 mg/kg): 0.43 % Dose | Liver, % Dose in Whole Organ ([4]; EHDP 0.01 mg/kg): 0.74 % Dose | Marrow, % Dose in Whole Organ ([4]; EHDP 0.01 mg/kg): 0.42 % Dose | One Tibia, % Dose in Whole Organ ([4]; EHDP 0.01 mg/kg): 2.60 % Dose | Kidneys, % Dose in Whole Organ ([4]; EHDP 0.05 mg/kg): 0.46 % Dose | Liver, % Dose in Whole Organ ([4]; EHDP 0.05 mg/kg): 0.77 % Dose | Marrow, % Dose in Whole Organ ([4]; EHDP 0.05 mg/kg): 0.61 % Dose | Blood, % Dose in Whole Organ ([4]; EHDP 0.1 mg/kg): 3.10 % Dose | Kidneys, % Dose in Whole Organ ([4]; EHDP 0.1 mg/kg): 0.30 % Dose | Liver, % Dose in Whole Organ ([4]; EHDP 0.1 mg/kg): 0.64 % Dose | Marrow, % Dose in Whole Organ ([4]; EHDP 0.1 mg/kg): 0.43 % Dose | Muscle, % Dose in Whole Organ ([4]; EHDP 0.1 mg/kg): 5.0 % Dose | Kidneys, % Dose in Whole Organ ([4]; EHDP 0.5 mg/kg): 0.48 % Dose | Liver, % Dose in Whole Organ ([4]; EHDP 0.5 mg/kg): 0.76 % Dose | Marrow, % Dose in Whole Organ ([4]; EHDP 0.5 mg/kg): 0.34 % Dose | Urine, % Dose ([4]; EHDP 0.5 mg/kg): 19.67 % Dose | Ave Bone, % Dose/1% body weight ([5]; MDP 0.01 mg/kg): 11.85 % Dose/1% body weight | Blood, % dose/1% body weight ([5]; MDP 0.01 mg/kg): 0.47 % Dose/1% body weight | Femur, % dose/1% body weight ([5]; MDP 0.01 mg/kg): 13.93 % Dose/1% body weight | Kidneys, % Dose in Whole Organ ([5]; MDP 0.01 mg/kg): 0.34 % Dose | Kidneys, % dose/1% body weight ([5]; MDP 0.01 mg/kg): 0.54 % Dose/1% body weight | Liver, % Dose in Whole Organ ([5]; MDP 0.01 mg/kg): 0.65 % Dose | Liver, % dose/1% body weight ([5]; MDP 0.01 mg/kg): 0.16 % Dose/1% body weight | Marrow, % Dose in Whole Organ ([5]; MDP 0.01 mg/kg): 0.53 % Dose | Marrow, % dose/1% body weight ([5]; MDP 0.01 mg/kg): 0.24 % Dose/1% body weight | Muscle, % dose/1% body weight ([5]; MDP 0.01 mg/kg): 0.13 % Dose/1% body weight | Pelvis, % dose/1% body weight ([5]; MDP 0.01 mg/kg): 13.55 % Dose/1% body weight | Spine, % dose/1% body weight ([5]; MDP 0.01 mg/kg): 12.78 % Dose/1% body weight | Tibia, % dose/1% body weight ([5]; MDP 0.01 mg/kg): 7.14 % Dose/1% body weight | Ave Bone, % Dose/1% body weight ([5]; MDP 0.05 mg/kg): 7.29 % Dose/1% body weight | Blood, % dose/1% body weight ([5]; MDP 0.05 mg/kg): 0.52 % Dose/1% body weight | Femur, % dose/1% body weight ([5]; MDP 0.05 mg/kg): 9.10 % Dose/1% body weight | Kidneys, % Dose in Whole Organ ([5]; MDP 0.05 mg/kg): 0.46 % Dose | Kidneys, % dose/1% body weight ([5]; MDP 0.05 mg/kg): 0.9 % Dose/1% body weight | Liver, % Dose in Whole Organ ([5]; MDP 0.05 mg/kg): 0.71 % Dose | Liver, % dose/1% body weight ([5]; MDP 0.05 mg/kg): 0.22 % Dose/1% body weight | Marrow, % Dose in Whole Organ ([5]; MDP 0.05 mg/kg): 0.53 % Dose | Marrow, % dose/1% body weight ([5]; MDP 0.05 mg/kg): 0.24 % Dose/1% body weight | Muscle, % dose/1% body weight ([5]; MDP 0.05 mg/kg): 0.14 % Dose/1% body weight | Pelvis, % dose/1% body weight ([5]; MDP 0.05 mg/kg): 8.33 % Dose/1% body weight | Spine, % dose/1% body weight ([5]; MDP 0.05 mg/kg): 6.75 % Dose/1% body weight | Tibia, % dose/1% body weight ([5]; MDP 0.05 mg/kg): 4.94 % Dose/1% body weight | Ave Bone, % Dose/1% body weight ([5]; MDP 0.1 mg/kg): 9.17 % Dose/1% body weight | Blood, % dose/1% body weight ([5]; MDP 0.1 mg/kg): 0.56 % Dose/1% body weight | Femur, % dose/1% body weight ([5]; MDP 0.1 mg/kg): 10.0 % Dose/1% body weight | Kidneys, % Dose in Whole Organ ([5]; MDP 0.1 mg/kg): 0.66 % Dose | Kidneys, % dose/1% body weight ([5]; MDP 0.1 mg/kg): 1.00 % Dose/1% body weight | Liver, % dose/1% body weight ([5]; MDP 0.1 mg/kg): 0.30 % Dose/1% body weight | Marrow, % Dose in Whole Organ ([5]; MDP 0.1 mg/kg): 0.57 % Dose | Marrow, % dose/1% body weight ([5]; MDP 0.1 mg/kg): 0.26 % Dose/1% body weight | Muscle, % dose/1% body weight ([5]; MDP 0.1 mg/kg): 0.22 % Dose/1% body weight | One femur, % dose in whole organ ([5]; MDP 0.1 mg/kg): 2.80 % Dose | Pelvis, % dose/1% body weight ([5]; MDP 0.1 mg/kg): 12.2 % Dose/1% body weight | Spine, % dose/1% body weight ([5]; MDP 0.1 mg/kg): 8.45 % Dose/1% body weight | Tibia, % dose/1% body weight ([5]; MDP 0.1 mg/kg): 6.05 % Dose/1% body weight | Ave Bone, % Dose/1% body weight ([5]; MDP 0.5 mg/kg): 8.77 % Dose/1% body weight | Blood, % dose/1% body weight ([5]; MDP 0.5 mg/kg): 0.45 % Dose/1% body weight | Femur, % dose/1% body weight ([5]; MDP 0.5 mg/kg): 11.32 % Dose/1% body weight | Kidneys, % Dose in Whole Organ ([5]; MDP 0.5 mg/kg): 0.45 % Dose | Kidneys, % dose/1% body weight ([5]; MDP 0.5 mg/kg): 0.69 % Dose/1% body weight | Liver, % Dose in Whole Organ ([5]; MDP 0.5 mg/kg): 0.69 % Dose | Liver, % dose/1% body weight ([5]; MDP 0.5 mg/kg): 0.23 % Dose/1% body weight | Marrow, % Dose in Whole Organ ([5]; MDP 0.5 mg/kg): 0.67 % Dose | Marrow, % dose/1% body weight ([5]; MDP 0.5 mg/kg): 0.30 % Dose/1% body weight | Muscle, % dose/1% body weight ([5]; MDP 0.5 mg/kg): 0.13 % Dose/1% body weight | Pelvis, % dose/1% body weight ([5]; MDP 0.5 mg/kg): 8.68 % Dose/1% body weight | Spine, % dose/1% body weight ([5]; MDP 0.5 mg/kg): 8.92 % Dose/1% body weight | Tibia, % dose/1% body weight ([5]; MDP 0.5 mg/kg): 6.16 % Dose/1% body weight
